Experimental data: DBAASP
Values after ≈ are worked out from the molar mass of the structure shown.

Key:
Assay in all cases: ≥ marks a high value that may be exact or a test limit, other limits are often not marked, values filed in µg/mL are converted to µM
Proteus mirabilis = system: Proteus mirabilis
Micrococcus luteus = system: Micrococcus luteus
Shigella dysenteriae = system: Shigella dysenteriae
[1] = system: Staphylococcus epidermidis
Escherichia coli = system: Escherichia coli
Salmonella typhimurium = system: Salmonella typhimurium
Bacillus subtilis = system: Bacillus subtilis
Pseudomonas aeruginosa = system: Pseudomonas aeruginosa
Staphylococcus aureus = system: Staphylococcus aureus
Klebsiella pneumoniae = system: Klebsiella pneumoniae
Candida albicans = system: Candida albicans
Saccharomyces cerevisiae = system: Saccharomyces cerevisiae
Serratia marcescens = system: Serratia marcescens
[2] = system: Micrococcus luteus ATCC 10240
Escherichia coli BL21AI = system: Escherichia coli BL21AI
[3] = system: Staphylococcus aureus ATCC 700699
[4] = system: Escherichia coli ATCC 25922
[5] = system: Pseudomonas aeruginosa ATCC 27853
[6] = system: Klebsiella pneumoniae ATCC 700603
[7] = system: Staphylococcus aureus ATCC 33591
[8] = system: Staphylococcus aureus ATCC 29213
[9] = system: Staphylococcus aureus ATCC 25923
[10] = system: Pseudomonas aeruginosa PAO1
Escherichia coli UB1005 = system: Escherichia coli UB1005
[11] = system: Salmonella enterica subsp. enterica serovar Typhimurium ATCC 14028
[12] = system: Staphylococcus epidermidis ATCC 12228
[13] = system: Bacillus subtilis CMCC 63501
[14] = system: Salmonella enterica subsp. enterica serovar Pullorum C79-13
[15] = system: Enterococcus faecalis ATCC 29212

Compound: CC(C)C[C@H](NC(=O)[C@H](C)NC(=O)CNC(=O)[C@H](CC(C)C)NC(=O)[C@@H](N)Cc1ccccc1)C(=O)N[C@@H](Cc1ccccc1)C(=O)N[C@@H](CCCCN)C(=O)N[C@@H](Cc1c[nH]c2ccccc12)C(=O)N[C@@H](C)C(=O)N[C@@H](CO)C(=O)N[C@@H](CCCCN)C(=O)O [FLGALFKWASK]
- MIC (Proteus mirabilis): ≥ 158 µM
- MIC (Micrococcus luteus): ≥ 39.4 µM
- MIC (Shigella dysenteriae): 19.7 µM (≈ 25 µg/mL)
- MIC [1]: 19.7 µM (≈ 25 µg/mL)
- MIC (Escherichia coli): 19.7 µM (≈ 25 µg/mL)
- MIC (Salmonella typhimurium): ≥ 78.9 µM
- MIC (Bacillus subtilis): 9.86 µM (≈ 12.5 µg/mL)
- MIC (Pseudomonas aeruginosa): 158 µM (≈ 200 µg/mL)
- MIC (Staphylococcus aureus): 9.86 µM (≈ 12.5 µg/mL)
- MIC (Klebsiella pneumoniae): 9.86 µM (≈ 12.5 µg/mL)

Compound: CC[C@H](C)[C@H](NC(=O)CN)C(=O)N[C@@H](CC(C)C)C(=O)N[C@@H](CC(=O)O)C(=O)N[C@H](C(=O)N[C@@H](CC(C)C)C(=O)N[C@@H](CCCCN)C(=O)N[C@@H](CCC(N)=O)C(=O)N[C@@H](Cc1ccccc1)C(=O)N[C@@H](C)C(=O)N[C@@H](CCCCN)C(=O)NCC(=O)N[C@H](C(=O)NCC(=O)N[C@@H](CCCCN)C(=O)N[C@@H](CC(=O)O)C(=O)N[C@@H](CC(C)C)C(=O)N[C@H](C(=O)N[C@@H](CCCCN)C(=O)NCC(=O)N[C@@H](C)C(=O)N[C@@H](C)C(=O)N[C@@H](CCC(N)=O)C(=O)NCC(=O)N[C@H](C(=O)N[C@@H](CC(C)C)C(=O)O)C(C)C)C(C)C)C(C)C)[C@@H](C)O [GILDTLKQFAKGVGKDLVKGAAQGVL]
- MIC (Proteus mirabilis): 19 µM (≈ 50 µg/mL)
- MIC (Micrococcus luteus): 0.952 µM (≈ 2.5 µg/mL)
- MIC (Shigella dysenteriae): 9.52 µM (≈ 25 µg/mL)
- MIC [1]: 28.5 µM (≈ 75 µg/mL)
- MIC (Escherichia coli): 9.52 µM (≈ 25 µg/mL)
- MIC (Candida albicans): > 38.1 µM
- MIC (Salmonella typhimurium): 28.5 µM (≈ 75 µg/mL)
- MIC (Bacillus subtilis): 19 µM (≈ 50 µg/mL)
- MIC (Pseudomonas aeruginosa): 19 µM (≈ 50 µg/mL)
- MIC (Saccharomyces cerevisiae): 9.52 µM (≈ 25 µg/mL)
- MIC (Serratia marcescens): ≥ 38.1 µM

Compound: CC(C)C[C@H](NC(=O)[C@H](CCCN=C(N)N)NC(=O)[C@@H]1CCCN1C(=O)[C@H](Cc1cnc[nH]1)NC(=O)[C@@H]1CCCN1C(=O)[C@@H](NC(=O)[C@@H]1CCCN1C(=O)[C@H](CCCN=C(N)N)NC(=O)[C@@H]1CCCN1C(=O)[C@H](CO)NC(=O)[C@H](Cc1ccc(O)cc1)NC(=O)[C@@H]1CCCN1C(=O)[C@H](CCCN=C(N)N)NC(=O)[C@@H]1CCCN1C(=O)[C@H](CCCCN)NC(=O)CN)[C@@H](C)O)C(N)=O [GKPRPYSPRPTPHPRL]
- MIC [2]: 2.15 µM (≈ 4 µg/mL)
- MIC (Escherichia coli BL21AI): 8.62 µM (≈ 16 µg/mL)

Compound: CC[C@H](C)[C@H](NC(=O)[C@@H]1CCCN1C(=O)[C@H](CCCN=C(N)N)NC(=O)[C@@H]1CCCN1C(=O)[C@H](Cc1cnc[nH]1)NC(=O)[C@H](CO)NC(=O)[C@@H](NC(=O)[C@@H]1CCCN1C(=O)[C@H](CCCN=C(N)N)NC(=O)[C@@H]1CCCN1C(=O)[C@H](CO)NC(=O)[C@H](Cc1ccc(O)cc1)NC(=O)[C@@H]1CCCN1C(=O)[C@H](CCCN=C(N)N)NC(=O)[C@@H]1CCCN1C(=O)[C@H](CCCCN)NC(=O)CN)[C@@H](C)O)C(=O)N[C@@H](CCCN=C(N)N)C(N)=O [GKPRPYSPRPTSHPRPIR]
- MIC [2]: 3.81 µM (≈ 8 µg/mL)
- MIC (Escherichia coli BL21AI): ≥ 61 µM

Compound: CC[C@H](C)[C@H](NC(=O)[C@H](CC(=O)O)NC(=O)[C@H](CCCCN)NC(=O)[C@H](C)NC(=O)[C@H](C)NC(=O)CNC(=O)[C@H](CCCCN)NC(=O)[C@H](CC(C)C)NC(=O)[C@@H](NC(=O)[C@H](CC(=O)O)NC(=O)[C@@H](NC(=O)[C@@H](NC(=O)CN)C(C)C)C(C)C)[C@@H](C)CC)C(=O)N[C@@H](C)C(=O)NCC(=O)N[C@@H](Cc1cnc[nH]1)C(=O)N[C@@H](CC(C)C)C(=O)N[C@@H](C)C(=O)N[C@@H](CO)C(=O)N[C@@H](CCCCN)C(=O)N[C@H](C(=O)N[C@@H](CCSC)C(=O)N[C@@H](C)C(=O)N[C@@H](CCCCN)C(=O)N[C@@H](CC(C)C)C(N)=O)C(C)C [GVVDILKGAAKDIAGHLASKVMAKL]
- MIC [3]: ≥ 100 µM
- MIC [4]: 50 µM (≈ 125 µg/mL)
- MIC [5]: > 100 µM
- MIC [6]: 100 µM (≈ 251 µg/mL)
- MIC [7]: ≥ 100 µM
- MIC [8]: > 100 µM

Compound: CC[C@H](C)[C@H](NC(=O)[C@H](CC(=O)O)NC(=O)[C@H](CCCCN)NC(=O)[C@H](C)NC(=O)[C@H](C)NC(=O)CNC(=O)[C@H](CCCCN)NC(=O)[C@H](CC(C)C)NC(=O)[C@@H](NC(=O)[C@H](CC(=O)O)NC(=O)[C@@H](NC(=O)[C@@H](NC(=O)CN)C(C)C)C(C)C)[C@@H](C)CC)C(=O)N[C@@H](C)C(=O)NCC(=O)N[C@@H](Cc1cnc[nH]1)C(=O)N[C@@H](CC(C)C)C(=O)N[C@@H](C)C(=O)N[C@@H](CO)C(=O)N[C@@H](CCCCN)C(=O)N[C@H](C(=O)N[C@@H](CCSC)C(=O)N[C@@H](CC(N)=O)C(=O)N[C@@H](CCCCN)C(=O)N[C@@H](C)C(N)=O)C(C)C [GVVDILKGAAKDIAGHLASKVMNKA]
- MIC [3]: ≥ 100 µM
- MIC [4]: > 100 µM
- MIC [5]: > 100 µM
- MIC [6]: > 100 µM
- MIC [7]: ≥ 100 µM
- MIC [8]: > 100 µM

Compound: CC[C@H](C)[C@H](NC(=O)[C@H](CC(=O)O)NC(=O)[C@H](CCCCN)NC(=O)[C@H](C)NC(=O)[C@H](C)NC(=O)CNC(=O)[C@H](CCCCN)NC(=O)[C@H](CC(C)C)NC(=O)[C@@H](NC(=O)[C@H](CC(=O)O)NC(=O)[C@@H](NC(=O)[C@@H](NC(=O)CN)C(C)C)C(C)C)[C@@H](C)CC)C(=O)N[C@@H](C)C(=O)NCC(=O)N[C@@H](Cc1cnc[nH]1)C(=O)N[C@@H](CC(C)C)C(=O)N[C@@H](CC(C)C)C(=O)N[C@@H](CO)C(=O)N[C@@H](CCCCN)C(=O)N[C@H](C(=O)N[C@@H](CCSC)C(=O)N[C@@H](CC(N)=O)C(=O)N[C@@H](CCCCN)C(=O)N[C@@H](CC(C)C)C(N)=O)C(C)C [GVVDILKGAAKDIAGHLLSKVMNKL]
- MIC [3]: ≥ 100 µM
- MIC [4]: 12.5 µM (≈ 32.4 µg/mL)
- MIC [5]: 100 µM (≈ 259 µg/mL)
- MIC [6]: 50 µM (≈ 130 µg/mL)
- MIC [7]: 25 µM (≈ 64.8 µg/mL)
- MIC [8]: 100 µM (≈ 259 µg/mL)

Compound: CC[C@H](C)[C@H](NC(=O)[C@H](CCCN=C(N)N)NC(=O)[C@H](CCCN=C(N)N)NC(=O)[C@@H]1CCCN1C(=O)[C@@H]1CCCN1C(=O)[C@H](CCCN=C(N)N)NC(=O)[C@@H]1CCCN1C(=O)[C@H](CCCN=C(N)N)NC(=O)[C@@H]1CCCN1C(=O)[C@H](CC(C)C)NC(=O)[C@H](Cc1ccc(O)cc1)NC(=O)[C@@H]1CCCN1C(=O)[C@@H]1CCCN1C(=O)[C@H](CCCCN)NC(=O)[C@H](CC(=O)O)NC(=O)[C@@H](N)C(C)C)C(=O)N[C@@H](Cc1ccc(O)cc1)C(=O)N[C@@H](CC(N)=O)C(=O)N[C@@H](Cc1cnc[nH]1)C(N)=O [VDKPPYLPRPRPPRRIYNH]
- MIC [9]: 38.2 µM (≈ 90.5 µg/mL)
- MIC [10]: 54 µM (≈ 128 µg/mL)
- MIC [2]: 6.75 µM (≈ 16 µg/mL)
- MIC (Escherichia coli BL21AI): 6.75 µM (≈ 16 µg/mL)
- MIC (Escherichia coli UB1005): 2.11 µM (≈ 5 µg/mL)

Compound: CC[C@H](C)[C@H](NC(=O)[C@H](CCCN=C(N)N)NC(=O)[C@H](CCCN=C(N)N)NC(=O)[C@@H]1CCCN1C(=O)[C@@H]1CCCN1C(=O)[C@H](CCCN=C(N)N)NC(=O)[C@@H]1CCCN1C(=O)[C@H](CCCN=C(N)N)NC(=O)[C@@H]1CCCN1C(=O)[C@H](CC(C)C)NC(=O)[C@H](Cc1ccc(O)cc1)NC(=O)[C@@H]1CCCN1C(=O)[C@@H]1CCCN1C(=O)[C@H](CCCCN)NC(=O)[C@H](CC(=O)O)NC(=O)[C@@H](N)C(C)C)C(=O)N[C@@H](Cc1ccc(O)cc1)C(=O)N[C@@H](CC(N)=O)C(=O)N[C@@H](CC(N)=O)C(=O)N[C@@H](CCCN=C(N)N)C(N)=O [VDKPPYLPRPRPPRRIYNNR]
- MIC [2]: 3.19 µM (≈ 8 µg/mL)
- MIC (Escherichia coli BL21AI): 3.19 µM (≈ 8 µg/mL)

Compound: CC(C)[C@H](NC(=O)[C@H](CCCCN)NC(=O)[C@H](C)NC(=O)[C@H](C)NC(=O)[C@H](C)NC(=O)[C@H](CCCCN)NC(=O)[C@H](C)NC(=O)[C@H](C)NC(=O)[C@H](C)NC(=O)[C@H](CCCCN)NC(=O)[C@@H](NC(=O)[C@@H](N)Cc1c[nH]c2ccccc12)C(C)C)C(=O)N[C@@H](Cc1c[nH]c2ccccc12)C(N)=O [WVKAAAKAAAKVW]
- MIC [4]: 32 µM (≈ 44.8 µg/mL)
- MIC [5]: > 128 µM
- MIC [11]: > 128 µM
- MIC [12]: > 128 µM
- MIC [13]: ≥ 128 µM
- MIC [8]: > 128 µM
- MIC [14]: ≥ 64 µM
- MIC [15]: 64 µM (≈ 89.5 µg/mL)
- MIC (Escherichia coli UB1005): ≥ 128 µM
